Test results published in patent publication US20230183237A1, “COMPETITIVE AND NONCOMPETITIVE INHIBITORS OF THE MUSCARINIC ACETYLCHOLINE RECEPTOR M5” (Vanderbilt University, priority 2020, published 2023).
Read-outs that look alike come from different tables or passages of the source.

Biological target: T1, hM5 (Homo sapiens, UniProt P08912)
T1 construct: expressed in transfected cells
T1 sequence (P08912 1-532): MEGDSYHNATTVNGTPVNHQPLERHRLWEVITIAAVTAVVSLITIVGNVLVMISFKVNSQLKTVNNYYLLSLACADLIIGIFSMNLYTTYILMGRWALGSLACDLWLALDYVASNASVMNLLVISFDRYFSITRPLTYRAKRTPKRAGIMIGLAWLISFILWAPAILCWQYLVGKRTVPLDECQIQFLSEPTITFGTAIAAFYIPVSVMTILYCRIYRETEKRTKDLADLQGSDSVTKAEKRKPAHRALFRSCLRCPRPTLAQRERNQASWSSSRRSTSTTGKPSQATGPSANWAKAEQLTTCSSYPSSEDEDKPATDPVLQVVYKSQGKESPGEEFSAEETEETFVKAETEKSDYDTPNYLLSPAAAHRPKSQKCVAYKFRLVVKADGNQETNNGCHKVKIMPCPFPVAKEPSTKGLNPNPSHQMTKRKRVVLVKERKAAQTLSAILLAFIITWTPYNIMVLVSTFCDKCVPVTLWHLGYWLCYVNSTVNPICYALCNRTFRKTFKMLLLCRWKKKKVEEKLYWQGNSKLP
Assay: Calcium mobilization concentration-response (IC50 vs EC80 acetylcholine), CHO hM5
Format: cell-based
Method in brief: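 IC50 values derive from percent maximal acetylcholine response after an EC80 ACh addition, measured as kinetic calcium fluorescence (static ratio, max−min). Test compounds were added 140 s before agonist. Cells: stable hM5-CHO in HEPES-buffered HBSS with 2.5 mM probenecid, pH 7.4; ≥3 independent triplicate determinations.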

[1] = CELL LINE hM5, vs EC80 acetylcholine, read-out: IC50
[2] = CELL LINE hM5, calcium mobilization, EC80 acetylcholine addition, read-out: IC50

SMILES | IC50 [1] | IC50 [2] | also measured
Cc1cc2ncccc2cc1C1CCN(S(=O)(=O)c2cnn(C)c2Cl)CC1 [Compound 417, 6-(1-((5-chloro-1-methyl-1H-pyrazol-4-yl)sulfonyl)piperidin-4-yl)-7-methylquinoline] | 0.034 µM |  | 
Cc1cc(C(F)(F)F)ncc1C1CCN(S(=O)(=O)c2cnc(C)n2C)CC1 [Compound 396, 5(1-((1,2-dimethyl-1H-imidazol-5-yl)sulfonyl)piperidin-4-yl)-4-methyl-2-(trifluoromethyl)pyridine] | > 10 µM |  | 
COc1nn(C)c(I)c1S(=O)(=O)N1CCC(c2cn3ncnc3cc2Cl)CC1 (single isomer, unassigned) [Compound 626, 7-chloro-6-(1-((5-iodo-3-methoxy-1-methyl-1H-pyrazol-4-yl)sulfonyl)piperidin-4-yl)-[1,2,4]triazolo[1,5-a]pyridine] | 0.037 µM |  | 
Cc1sc(C(N)=O)nc1C1CCN(S(=O)(=O)c2cnn(C)c2C)CC1 [Compound 213, 4-(1-((1,5-Dimethyl-1H-pyrazol-4-yl)sulfonyl)piperidin-4-yl)-5-methylthiazole-2-carboxamide] |  | 5.8 µM | 
CO[C@@H]1CN(S(=O)(=O)c2cnn(C)c2Cl)CC[C@H]1c1cn2ncnc2cc1C (single isomer, unassigned) [Compound 459] | 0.268 µM |  | 
Cc1cc2ncnn2cc1C1CC2CCC(C1)N2S(=O)(=O)c1cnn(C)c1C (centres unmarked) [Compound 191, 6-(8-((1,5-dimethyl-1H-pyrazol-4-yl)sulfonyl)-8-azabicyclo[3.2.1]octan-3-yl)-7-methyl-[1,2,4]triazolo[1,5-a]pyridine] |  |  | IC50: > 10 µM
O=S(=O)(c1cnn2c1CCCC2)N1CCC(c2cn3ncnc3cc2C(F)(F)F)CC1 [Compound 271, 6-(1-((4,5,6,7-tetrahydropyrazolo[1,5-a]pyridin-3-yl)sulfonyl)piperidin-4-yl)-7-(trifluoromethyl)-[1,2,4]triazolo[1,5-a]pyridine] |  | 0.051 µM | 
CCc1cc2ncnn2cc1C1CCN(S(=O)(=O)c2cnc3ccccn23)CC1 [Compound 334, 7-ethyl-6-(1-(imidazo[1,2-a]pyridin-3-ylsulfonyl)piperidin-4-yl)-[1,2,4]triazolo[1,5-a]pyridine] |  | 0.341 µM | 
Cn1ncc(S(=O)(=O)N2CCC(c3cn4ncnc4cc3F)CC2)c1CC#N [Compound 403, 2-(4-((4-(7-fluoro-[1,2,4]triazolo[1,5-a]pyridin-6-yl)piperidin-1-yl)sulfonyl)-1-methyl-1H-pyrazol-5-yl)acetonitrile] | 5.06 µM |  | 
Cc1cc2ncnn2cc1C1(F)CCN(S(=O)(=O)c2cnn(C)c2C#N)CC1 [Compound 462, 4-((4-fluoro-4-(7-methyl-[1,2,4]triazolo[1,5-a]pyridin-6-yl)piperidin-1-yl)sulfonyl)-1-methyl-1H-pyrazole-5-carbonitrile] | 0.086 µM |  | 
Cc1c(C2CCN(S(=O)(=O)c3cnn4c3CCCC4)CC2)cn2ncnc2c1F [Compound 305, 8-fluoro-7-methyl-6-(1-((4,5,6,7-tetrahydropyrazolo[1,5-a]pyridin-3-yl)sulfonyl)piperidin-4-yl)-[1,2,4]triazolo[1,5-a]pyridine] |  | 0.012 µM | 
Cc1c(S(=O)(=O)N2CCC(c3cn4ncnc4cc3C(C)(C)O)CC2)cnn1C [Compound 472, 2-(6-(1-((1,5-dimethyl-1H-pyrazol-4-yl)sulfonyl)piperidin-4-yl)-[1,2,4]triazolo[1,5-a]pyridin-7-yl)propan-2-ol] | > 10 µM |  | 
Cc1c(S(=O)(=O)N2CC=C(c3cnc4ncnn4c3C)CC2)cnn1C [Compound 243, 6-(1-((1,5-dimethyl-1H-pyrazol-4-yl)sulfonyl)-1,2,3,6-tetrahydropyridin-4-yl)-7-methyl-[1,2,4]triazolo[1,5-a]pyrimidine] |  | > 10 µM | 
Cc1c(C2CCN(S(=O)(=O)c3cnc4sccn34)CC2)cn2ncnc2c1F [Compound 533, 5-((4-(8-fluoro-7-methyl-[1,2,4]triazolo[1,5-a]pyridin-6-yl)piperidin-1-yl)sulfonyl)imidazo[2,1-b]thiazole] | 0.009 µM |  | 
Cc1cc2ncnn2cc1C1(F)CCN(S(=O)(=O)c2cnn3c2CCC3)CC1 [Compound 420, 6-(1-((5,6-dihydro-4H-pyrrolo[1,2-b]pyrazol-3-yl)sulfonyl)-4-fluoropiperidin-4-yl)-7-methyl-[1,2,4]triazolo[1,5-a]pyridine] | 0.039 µM |  | 
Cc1c(C2CCN(S(=O)(=O)c3cn(C)nn3)CC2)cn2ncnc2c1F [Compound 558, 8-fluoro-7-methyl-6-(1-((1-methyl-1H-1,2,3-triazol-4-yl)sulfonyl)piperidin-4-yl)-[1,2,4]triazoto[1,5-a]pyridine] | 0.235 µM |  | 
CCc1cc2ncnn2cc1C1CCN(S(=O)(=O)c2cn(C)nn2)CC1 [Compound 562, 7-ethyl-6-(1-((1-methyl-1H-1,2,3-triazol-4-yl)sulfonyl)piperidin-4-yl)-[1,2,4]triazolo[1,5-a]pyridine] | 0.972 µM |  | 

Second part, led by results:

IC50 [1] | IC50 [2] | SMILES | also measured
 | 0.081 µM | Cc1cc2ncnn2cc1C1CCN(S(=O)(=O)c2c(C(F)(F)F)nn(C)c2C)CC1 [Compound 118, 6-(1-((1,5-dimethyl-3-(trifluoromethyl)-1H-pyrazol-4-yl)sulfonyl)piperidin-4-yl)-7-methyl-[1,2,4]triazolo[1,5-a]pyridine] | 
 | > 10 µM | O=S(=O)(c1ccc2c(c1)CCO2)N1CCC(c2cc3cc[nH]c3cn2)CC1 [Compound 24, 5-(1-((2,3-dihydrobenzofuran-5-yl)sulfonyl)piperidin-4-yl)-1H-pyrrolo[2,3-c]pyridine] | 
 | 0.125 µM | Cc1nn(C)c(Cl)c1S(=O)(=O)N1CCC(c2cn3ncnc3cc2F)CC1 [Compound 228, 6-(1-((5-chloro-1,3-dimethyl-1H-pyrazol-4-yl)sulfonyl)piperidin-4-yl)-7-fluoro-[1,2,4]triazolo[1,5-a]pyridine] | 
0.261 µM |  | Cn1cnnc1S(=O)(=O)N1CCC(c2cn3ncnc3cc2Cl)CC1 [Compound 541, 7-chloro-6-(1-((4-methyl-4H-1,2,4-triazol-3-yl)sulfonyl)piperidin-4-yl)-[1,2,4]triazolo[1,5-a]pyridine] | 
 | 0.306 µM | Cc1c(S(=O)(=O)N2CCC(c3ccc4c(c3)OCO4)CC2)cnn1C [Compound 356, 4-(benzo[d][1,3]dioxol-5-yl)-1-((1,5-dimethyl-1H-pyrazol-4-yl)sulfonyl)piperidine] | 
 | 0.114 µM | Cc1cc2ncnn2cc1C1CCN(S(=O)(=O)c2ccc3c(c2F)C(C)CO3)CC1 (centres unmarked) [Compound 104, 6-(1-((4-fluoro-3-methyl-2,3-dihydrobenzofuran-5-yl)sulfonyl)piperidin-4-yl)-7-methyl-[1,2,4]triazolo[1,5-a]pyridine] | 
0.025 µM |  | Cc1cc2nccn2cc1C1CCN(S(=O)(=O)c2cnn(C)c2Cl)CC1 [Compound 581, 6-(1-((5-chloro-1-methyl-1H-pyrazol-4-yl)sulfonyl)piperidin-4-yl)-7-methylimidazo[1,2-a]pyridine] | 
 | 2.9 µM | Cc1cc2ncnn2cc1C1CCN(S(=O)(=O)c2c(C)n[nH]c2C)CC1 [Compound 157, 6-(1-((3,5-dimethyl-1H-pyrazol-4-yl)sulfonyl)piperidin-4-yl)-7-methyl-[1,2,4]triazolo[1,5-a]pyridine] | 
 | 0.407 µM | Cc1ncc(S(=O)(=O)N2CCC(c3cn4ncnc4cc3F)CC2)n1C [Compound 234, 6-(1-((1,2-dimethyl-1H-imidazol-5-yl)sulfonyl)piperidin-4-yl)-7-fluoro-[1,24]triazolo[1,5-a]pyridine] | 
 | 0.0073 µM | O=S(=O)(c1cnn2c1CCCC2)N1CCC(c2cn3ncnc3cc2Cl)CC1 [Compound 283, 7-chloro-6-(1-((4,5,6,7-tetrahydropyrazolo[1,5-a]pyridin-3-yl)sulfonyl)piperidin-4-yl)-[1,2,4]triazolo[1,5-a]pyridine] | 
 | > 10 µM | COc1cc(C2CCN(S(=O)(=O)c3cc4c(cc3F)OCC4)CC2)cn2ncnc12 [Compound 115, 6-(1-((6-fluoro-2,3-dihydrobenzofuran-5-yl)sulfonyl)piperidin-4-yl)-8-methoxy-[1,2,4]triazolo[1,5-a]pyridine] | 
 | 0.195 µM | Cc1cc2ncnn2cc1C1CCN(S(=O)(=O)c2cc3c(cc2F)OCC3C)CC1 (centres unmarked) [Compound 103, 6-(1-((6-fluoro-3-methyl-2,3-dihydrobenzofuran-5-yl)sulfonyl)piperidin-4-yl)-7-methyl-[1,2,4]triazolo[5-a]pyridine] | 
 | 5.9 µM | Cc1cc2ncnn2nc1C1CCN(S(=O)(=O)c2ccc3c(c2)CCO3)CC1 [Compound 164, 6-(1-((2,3-dihydrobenzofuran-5-yl)sulfonyl)piperidin-4-yl)-7-methyl-[1,2,4]triazolo[1,5-b]pyridazine] | 
 | 3.1 µM | COc1cc2ncnn2cc1C1CCN(S(=O)(=O)c2ccc3c(c2)C(C)CO3)CC1 (centres unmarked) [Compound 90, 7-methoxy-6-(1-((3-methyl-2,3-dihydrobenzofuran-5-yl)sulfonyl)piperidin-4-yl)-[1,2,4]triazolo[1,5-a]pyridine] | 
 | 0.026 µM | CCc1cc2ncnn2cc1C1CCN(S(=O)(=O)c2cnn3c2CCC3)CC1 [Compound 299, 6-(1-((5,6-dihydro-4H-pyrrolo[1,2-b]pyrazol-3-yl)sulfonyl)piperidin-4-yl)-7-ethyl-[1,2,4]triazolo[1,5-a]pyridine] | 
